“Also recorded” adds a separate entry of the source.
Columns and labels:
[1] = test system: CA1-LTP in hippocampal slices; experiment: CA1-LTP in hippocampal slices (theta-burst); format: cell-based, mouse; conditions: for LTP: lactacystin 10 μM
[2] = test system: BST at the Schaffer collateral/CA1 connection of hippocampal slices; experiment: Basal synaptic transmission (BST) in hippocampal slices; format: cell-based, mouse
[3] = test system: PPF in hippocampal slices; experiment: Paired pulse facilitation (PPF) in hippocampal slices; format: cell-based, mouse
[4] = test system: SY5Y neuroblastoma cells transfected with a degron CL1-GFP expression vector; experiment: Proteasome reporter assay (GFP^u); format: cell-based, human; conditions: substance alone
Protocol: Proteasome reporter assays. In this cell line, human neuroblastoma SH-SY5Y cells were permanently transfected with reporter construct consisting of green fluorescent protein (GFP) conjugated at its C-terminus to a short degron sequence (CL-1) (Gilon et al., 1998). […] The SY5Y-GFP^u cells were grown in 1×DMEM (Invitrogen) supplemented with 15% fetal bovine serum (JRH), 1× penicillin/streptomycin (Gibco). After indicated treatments, GFP^u concentrations were assayed by densitometric analysis of immunoblots of total protein extracts (10 ug/lane) using monoclonal GFP antibodies (Santa Cruz Biotechnology) and visualized with HRP-conjugated secondary antibodies and ECL (Pierce). Loading equalization was normalized by probing blots with anti-ERK antibodies (Santa Cruz Biotechnology).

[5] = test system: PKA; experiment: PKA kinase activity in hippocampal slices; format: cell-based, mouse; conditions: lactacystin 10 μM 1 hr pretreatment, TAT-HA-Uch-L1 plus Aβ
[6] = test system: PKA; experiment: PKA kinase activity in hippocampal cultures; format: cell-based, rat; conditions: lactacystin 10 μM for 1 hr
Protocol: PKA Kinase Activity Measurement. Primary hippocampal neurons from E18 rats were dissociated and cultured as described (Vitolo et al, Proc Natl Acad Sci USA 99:13217-13221 (2002)). […]
Hippocampal slices were lysed with RIPA lysis buffer and homogenized by Dounce homogenizer on ice. 5 DIV primary cultures were treated for 24 hrs and cells were lysed with RIPA lysis buffer.
Levels of intracellular PKA kinase activity were measured by PKA Kinase Activity Assay Kit (Stressxpress) according to manufacturer's instructions.
Preparation of Cell Cultures. Hippocampal cell cultures were prepared as previously described (Vitolo et al., 2002). In cell culture experiments fetuses at embryonic day 18 from timed pregnant Sprague-Dawley rats (Taconic Farms) were used. Fetuses were sacrificed and the hippocampi removed. Neurons were then dissociated, plated on 6 well-plates coated with poly-L-lysine and maintained in a defined serum-free medium containing minimum essential medium supplemented with N-2, glucose, albumin, pyruvic acid, antibiotics and antimycotics. […] 5 DIV cells were used for the experiments.

[7] = prolonged exposure lactacystin 10 μM

`CC(=O)N[C@@H](CSC(=O)[C@]1([C@@H](O)C(C)C)NC(=O)[C@H](C)[C@@H]1O)C(=O)O` [lactacystin, reference compound] was tested, and the “LTP” value ([1]; 2-4 hrs) was “markedly reduced; also recorded: blocked”, the LTP ([1]; 2 to 4 hour exposure) was “approximately 50 % that of vehicle treated slices” and the “LTP” value ([1]; 15 min) was “did not change; also recorded: does not affect; also recorded: did not affect CA1-LTP”. The “baseline transmission in slices without tetanic stimulation” value ([1]; non-tetanized slices) was “did not affect baseline transmission”, the “LTP at 60 min” value [1, 7] was 116.17±14.69% and the “LTP at 120 min” value [1, 7] was 119.25±12.82 % of baseline. For the same compound, the “BST” value ([2]; lactacystin 10 μM, 2-4 hrs) was “markedly reduced; also recorded: strongly reduced”, the “BST (slope of the input-output curve at 35 V)” value ([2]; lactacystin 10 μM, 2 to 4 hour exposure) was “approximately 50 % that of vehicle treated slices” and the “BST” value ([2]; lactacystin 10 μM, 15 min) was “did not change; also recorded: does not affect; also recorded: did not affect BST”. For the same compound, the “BST at 35V stimulation” value [2, 7] was 0.93±0.06 mV/ms, the “PPF” value ([3]; lactacystin 10 μM, 2-4 hrs) was “markedly reduced” and the “PPF at 50 ms interval” value [3, 7] was 150.96±10.18%. For the same compound, the “PPF at 300 ms interval” value [3, 7] was 119.11±5.43%, the “GFP^u levels” value [4] was “much larger increase in GFP” and the PKA activity [5] was 74.9±3.21%. For the same compound, the “beneficial effect of TAT-HA-Uch-L1 on PKA activity” value [6] was “blocked the beneficial effect”.

Reference: patent publication US7947279B2, “Peptide having hydrolase activity” (The Trustees of Columbia University in the City of New York, priority 2005, dated 2011)
